In one assay the target is T1, HiBit-BRG1 (Homo sapiens, UniProt P51532).
T1 construct: expressed in transfected cells
Description: HiBit-BRG1 cell-based degradation assay (Nano-Glo HiBiT Lytic Detection). The following applies: HeLa cells expressing HiBit-BRG1 and LgBit, 24 h; for DC50: read-out: BRG1 HiBit Degradation IC50; for Dmax: read-out: BRG1 HiBit Degradation Maximum (%). In short, it runs like this: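 Stable HeLa line co-expressing HiBit-BRG1 and LgBit, 5000 cells/well, treated 24 h in a tissue culture incubator. Lysed with Nano-Glo HiBiT lytic reagent, luminescence read. % degradation normalized to DMSO (high control) and 2 μM reference BRM/BRG1 degrader (low control).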

In the next assay the target is T2, HiBiT-BRM (Homo sapiens, UniProt P51531).
T2 construct: expressed in transfected cells
Put plainly: HiBiT-BRM cell-based degradation assay (Nano-Glo HiBiT Lytic Detection). The following applies: HeLa cells expressing HiBiT-BRM, 24 h; for DC50: read-out: BRM HiBit Degradation IC50. In short, it runs like this: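 Luminescence from HiBiT–LgBiT complementation in lysates of a stable HiBiT-BRM HeLa line measured after 24 h compound exposure. Degradation expressed as percent relative to DMSO-treated cells and cells given 2 μM of a known BRM/BRG1 degrader.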

T2 sequence (P51531 whole entry): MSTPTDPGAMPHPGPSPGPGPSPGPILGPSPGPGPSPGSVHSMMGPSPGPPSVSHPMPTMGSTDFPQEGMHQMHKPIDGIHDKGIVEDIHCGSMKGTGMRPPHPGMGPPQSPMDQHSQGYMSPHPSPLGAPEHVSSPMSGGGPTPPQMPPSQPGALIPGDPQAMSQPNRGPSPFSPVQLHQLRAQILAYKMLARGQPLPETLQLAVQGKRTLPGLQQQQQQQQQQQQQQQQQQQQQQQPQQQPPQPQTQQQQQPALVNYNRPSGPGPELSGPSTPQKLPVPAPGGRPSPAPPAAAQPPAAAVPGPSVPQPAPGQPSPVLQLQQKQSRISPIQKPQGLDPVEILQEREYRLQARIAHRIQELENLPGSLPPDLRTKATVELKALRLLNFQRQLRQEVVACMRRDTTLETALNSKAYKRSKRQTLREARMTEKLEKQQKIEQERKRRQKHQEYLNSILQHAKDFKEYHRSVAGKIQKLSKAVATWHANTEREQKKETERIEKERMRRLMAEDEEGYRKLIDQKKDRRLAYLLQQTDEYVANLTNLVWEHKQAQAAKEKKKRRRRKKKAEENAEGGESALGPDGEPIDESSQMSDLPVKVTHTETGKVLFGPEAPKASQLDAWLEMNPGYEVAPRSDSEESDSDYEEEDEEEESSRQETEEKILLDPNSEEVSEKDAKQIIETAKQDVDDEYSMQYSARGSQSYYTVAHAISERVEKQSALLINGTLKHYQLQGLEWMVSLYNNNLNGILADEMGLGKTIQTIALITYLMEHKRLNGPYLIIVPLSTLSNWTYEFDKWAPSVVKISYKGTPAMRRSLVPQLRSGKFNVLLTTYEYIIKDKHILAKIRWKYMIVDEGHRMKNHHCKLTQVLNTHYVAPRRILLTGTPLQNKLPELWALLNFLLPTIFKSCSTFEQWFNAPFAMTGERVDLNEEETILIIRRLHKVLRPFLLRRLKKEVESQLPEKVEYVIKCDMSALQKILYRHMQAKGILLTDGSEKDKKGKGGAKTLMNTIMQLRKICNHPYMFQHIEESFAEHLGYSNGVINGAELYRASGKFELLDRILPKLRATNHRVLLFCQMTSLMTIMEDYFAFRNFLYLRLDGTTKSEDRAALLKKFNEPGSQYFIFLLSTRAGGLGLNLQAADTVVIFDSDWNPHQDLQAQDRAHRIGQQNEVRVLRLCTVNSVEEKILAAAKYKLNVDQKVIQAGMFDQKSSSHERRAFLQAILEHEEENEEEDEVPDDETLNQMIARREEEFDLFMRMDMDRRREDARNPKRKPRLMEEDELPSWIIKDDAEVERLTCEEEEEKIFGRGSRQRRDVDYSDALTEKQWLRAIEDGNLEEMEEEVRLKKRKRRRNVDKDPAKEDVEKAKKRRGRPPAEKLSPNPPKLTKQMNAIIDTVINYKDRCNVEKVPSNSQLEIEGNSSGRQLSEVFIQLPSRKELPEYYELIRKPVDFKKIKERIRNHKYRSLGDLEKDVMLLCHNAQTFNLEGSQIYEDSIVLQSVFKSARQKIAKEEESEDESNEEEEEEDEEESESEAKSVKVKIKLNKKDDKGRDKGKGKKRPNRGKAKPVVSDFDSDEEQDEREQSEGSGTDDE
T1 sequence (P51532 whole entry): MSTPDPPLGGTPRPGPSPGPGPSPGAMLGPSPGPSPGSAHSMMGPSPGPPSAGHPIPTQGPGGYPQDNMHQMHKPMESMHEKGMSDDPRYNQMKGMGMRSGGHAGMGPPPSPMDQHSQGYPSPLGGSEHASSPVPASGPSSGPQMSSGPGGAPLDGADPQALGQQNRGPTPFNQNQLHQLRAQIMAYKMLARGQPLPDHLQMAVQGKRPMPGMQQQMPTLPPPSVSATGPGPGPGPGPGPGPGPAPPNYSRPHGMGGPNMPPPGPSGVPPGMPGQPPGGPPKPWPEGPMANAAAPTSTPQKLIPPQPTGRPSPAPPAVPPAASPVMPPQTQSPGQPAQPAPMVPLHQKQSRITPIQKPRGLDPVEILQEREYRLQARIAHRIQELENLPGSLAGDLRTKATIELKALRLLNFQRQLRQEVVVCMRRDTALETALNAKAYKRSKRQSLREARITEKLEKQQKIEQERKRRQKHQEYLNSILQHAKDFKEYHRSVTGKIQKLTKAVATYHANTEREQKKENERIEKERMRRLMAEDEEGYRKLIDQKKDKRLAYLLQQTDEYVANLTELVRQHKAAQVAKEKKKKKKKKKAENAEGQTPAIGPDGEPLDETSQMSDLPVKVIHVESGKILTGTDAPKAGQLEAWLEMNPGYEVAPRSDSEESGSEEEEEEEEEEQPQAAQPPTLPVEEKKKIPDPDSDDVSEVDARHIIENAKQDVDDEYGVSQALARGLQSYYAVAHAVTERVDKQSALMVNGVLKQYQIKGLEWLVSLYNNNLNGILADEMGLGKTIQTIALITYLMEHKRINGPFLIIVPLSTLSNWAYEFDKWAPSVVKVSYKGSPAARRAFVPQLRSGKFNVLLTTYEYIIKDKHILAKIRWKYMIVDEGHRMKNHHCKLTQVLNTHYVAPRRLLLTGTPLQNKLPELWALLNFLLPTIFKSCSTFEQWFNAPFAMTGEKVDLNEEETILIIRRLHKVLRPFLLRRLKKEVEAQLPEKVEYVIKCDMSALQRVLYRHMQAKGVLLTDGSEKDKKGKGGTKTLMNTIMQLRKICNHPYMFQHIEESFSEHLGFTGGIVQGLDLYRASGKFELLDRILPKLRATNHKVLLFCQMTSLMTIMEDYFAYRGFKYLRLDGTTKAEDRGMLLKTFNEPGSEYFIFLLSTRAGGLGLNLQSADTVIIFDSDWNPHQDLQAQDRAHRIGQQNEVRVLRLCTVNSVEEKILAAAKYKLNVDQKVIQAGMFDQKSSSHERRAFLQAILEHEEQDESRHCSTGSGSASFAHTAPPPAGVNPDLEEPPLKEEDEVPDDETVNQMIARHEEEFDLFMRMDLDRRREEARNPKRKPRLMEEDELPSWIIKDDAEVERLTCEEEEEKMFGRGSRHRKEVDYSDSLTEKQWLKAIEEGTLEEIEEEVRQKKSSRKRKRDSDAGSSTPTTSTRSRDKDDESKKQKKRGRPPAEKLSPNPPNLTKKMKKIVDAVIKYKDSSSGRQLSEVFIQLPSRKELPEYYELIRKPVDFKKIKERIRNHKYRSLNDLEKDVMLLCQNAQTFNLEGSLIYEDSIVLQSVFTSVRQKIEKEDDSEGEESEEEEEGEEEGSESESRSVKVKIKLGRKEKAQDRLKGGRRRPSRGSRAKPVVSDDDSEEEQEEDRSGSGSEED

Turning to `Cc1ncsc1-c1ccc([C@H](C)NC(=O)[C@@H]2C[C@@H](O)CN2C(=O)[C@@H](c2cc(OCCNCCCCC(=O)NCc3ccc(CCOc4cc(-c5ccccc5O)nnc4N)cc3)no2)C(C)C)cc1` [Compound 218, (2S,4R)-1-((R)-2-(3-(2-((5-((4-(2-((3-amino-6-(2-hydroxyphenyl)pyridazin-4-yl)oxy)ethyl)benzyl)amino)-5-oxopentyl)amino)ethoxy)isoxazol-5-yl)-3-methylbutanoyl)-4-hydroxy-N-((S)-1-(4-(4-methylthiazol-5-yl)phenyl)ethyl)pyrrolidine-2-carboxamide], on HiBit-BRG1, the DC50 is more than 1000 nM and the Dmax was less than 50%. For the same compound, at HiBiT-BRM, the “BRM HiBit Degradation Maximum (%)” value is reported as “B (“B” indicates maximum degradation ≥50%)” and the DC50 was more than 100 nM.

On to `Cc1ncsc1-c1ccc([C@H](C)NC(=O)[C@@H]2C[C@@H](O)CN2C(=O)[C@@H](c2cc(OCCN3CC(OC4CCN(C(=O)c5ccc(CCOc6cc(-c7ccccc7O)nnc6N)cc5)CC4)C3)no2)C(C)C)cc1` [Compound 237, (2S,4R)-1-((R)-2-(3-(2-(3-((1-(4-(2-((3-amino-6-(2-hydroxyphenyl)pyridazin-4-yl)oxy)ethyl)benzoyl)piperidin-4-yl)oxy)azetidin-1-yl)ethoxy)isoxazol-5-yl)-3-methylbutanoyl)-4-hydroxy-N-((S)-1-(4-(4-methylthiazol-5-yl)phenyl)ethyl)pyrrolidine-2-carboxamide], for which, at HiBit-BRG1, the DC50 was more than 100 nM and the Dmax was more than 50%. On HiBiT-BRM, the “BRM HiBit Degradation Maximum (%)” value is recorded as “A (“A” indicates maximum degradation ≥75%)” and the DC50 is more than 10 nM.

Regarding `Cc1ncsc1-c1ccc([C@H](C)NC(=O)[C@@H]2C[C@@H](O)CN2C(=O)[C@@H](c2cc(OCCNCc3ccc(CCOc4cc(-c5ccccc5O)nnc4N)cc3)no2)C(C)C)cc1` [Compound 205, (2S,4R)-1-[(2R)-2-[3-[2-([[4-(2-[[3-amino-6-(2-hydroxyphenyl)pyridazin-4-yl]oxy]ethyl)phenyl]methyl]amino)ethoxy]-1,2-oxazol-5-yl]-3-methylbutanoyl]-4-hydroxy-N-[(1S)-1-[4-(4-methyl-1,3-thiazol-5-yl)phenyl]ethyl]pyrrolidine-2-carboxamide], on HiBit-BRG1, the DC50 is more than 100 nM and the Dmax was more than 75%. On HiBiT-BRM, the “BRM HiBit Degradation Maximum (%)” value was “A (“A” indicates maximum degradation ≥75%)” and the DC50 was less than 10 nM.

Regarding `Cc1ncsc1-c1ccc([C@H](C)NC(=O)[C@@H]2C[C@@H](O)CN2C(=O)[C@@H](c2cc(OCCN3C[C@@H]4CN(C(=O)c5ccc(CCOc6cc(-c7ccccc7O)nnc6N)cc5)C[C@@H]4C3)no2)C(C)C)cc1` [Compound 190, (2S,4R)-1-((2R)-2-(3-(2-(5-(4-(2-((3-amino-6-(2-hydroxyphenyl)pyridazin-4-yl)oxy)ethyl)benzoyl)hexahydropyrrolo[3,4-c]pyrrol-2(1H)-yl)ethoxy)isoxazol-5-yl)-3-methylbutanoyl)-4-hydroxy-N-((S)-1-(4-(4-methylthiazol-5-yl)phenyl)ethyl)pyrrolidine-2-carboxamide], at HiBit-BRG1, the DC50 was more than 100 nM and the Dmax is more than 75%. Also, at HiBiT-BRM, the “BRM HiBit Degradation Maximum (%)” value was “A (“A” indicates maximum degradation ≥75%)” and the DC50 is more than 10 nM.

As for `Cc1ncsc1-c1ccc(CNC(=O)[C@@H]2C[C@@H](O)CN2C(=O)[C@@H](NC(=O)CCN2CC(C(=O)NCc3ccc(CCOc4cc(-c5ccccc5O)nnc4N)cc3)C2)C(C)(C)C)cc1` [Compound 182, (2S,4R)-1-[(2S)-2-[3-[3-([[4-(2-[[3-amino-6-(2-hydroxyphenyl)pyridazin-4-yl]oxy]ethyl)phenyl]methyl]carbamoyl)azetidin-1-yl]propanamido]-3,3-dimethylbutanoyl]-4-hydroxy-N-[[4-(4-methyl-1,3-thiazol-5-yl)phenyl]methyl]pyrrolidine-2-carboxamide], at HiBit-BRG1, the DC50 is more than 1000 nM and the Dmax was less than 50%. In addition, at HiBiT-BRM, the “BRM HiBit Degradation Maximum (%)” value is recorded as “C (“C” indicates maximum degradation <50%)” and the DC50 is more than 1000 nM.

On to `Cc1ncsc1-c1ccc([C@H](C)NC(=O)[C@@H]2C[C@@H](O)CN2C(=O)[C@@H](NC(=O)CCCCCCCCCCCCCCNCc2ccc(CCOc3cc(-c4ccccc4O)nnc3N)cc2)C(C)(C)C)cc1` [Compound 261, (2S,4R)-1-((S)-2-(15-((4-(2-((3-amino-6-(2-hydroxyphenyl)pyridazin-4-yl)oxy)ethyl)benzyl)amino)pentadecanamido)-3,3-dimethylbutanoyl)-4-hydroxy-N-((S)-1-(4-(4-methylthiazol-5-yl)phenyl)ethyl)pyrrolidine-2-carboxamide], for which, on HiBit-BRG1, the DC50 was more than 1000 nM and the Dmax was more than 50%. At HiBiT-BRM, the “BRM HiBit Degradation Maximum (%)” value was “A (“A” indicates maximum degradation ≥75%)” and the DC50 is more than 10 nM.

On to `Cc1ncsc1-c1ccc(CNC(=O)[C@@H]2C[C@@H](O)CN2C(=O)[C@@H](NC(=O)CCN2C[C@@H]3[C@H](C2)[C@H]3C(=O)NCc2ccc(CCOc3cc(-c4ccccc4O)nnc3N)cc2)C(C)(C)C)cc1` [Compound 184, (1R,5S,6S)-N-[[4-(2-[[3-amino-6-(2-hydroxyphenyl)pyridazin-4-yl]oxy]ethyl)phenyl]methyl]-3-(2-[[(2S)-1-[(2S,4R)-4-hydroxy-2-([[4-(4-methyl-1,3-thiazol-5-yl)phenyl]methyl]carbamoyl)pyrrolidin-1-yl]-3,3-dimethyl-1-oxobutan-2-yl]carbamoyl]ethyl)-3-azabicyclo[3.1.0]hexane-6-carboxamide], for which, on HiBit-BRG1, the DC50 is more than 1000 nM and the Dmax is less than 50%. Moreover, at HiBiT-BRM, the “BRM HiBit Degradation Maximum (%)” value was “B (“B” indicates maximum degradation ≥50%)” and the DC50 was more than 1000 nM.

In the case of `Nc1nnc(-c2ccccc2O)cc1OCCc1ccc(CNCCN2CC3CC2CN3c2cccc3c2C(=O)N(C2CCC(=O)NC2=O)C3=O)cc1` (stereo not drawn) [Compound 158, 4-(5-(2-((4-(2-((3-amino-6-(2-hydroxyphenyl)pyridazin-4-yl)oxy)ethyl)benzyl)amino)ethyl)-2,5-diazabicyclo[2.2.1]heptan-2-yl)-2-(2,6-dioxopiperidin-3-yl)isoindoline-1,3-dione], at HiBit-BRG1, the DC50 was more than 100 nM and the Dmax was more than 50%. Further, at HiBiT-BRM, the “BRM HiBit Degradation Maximum (%)” value is on record as “B (“B” indicates maximum degradation ≥50%)” and the DC50 was more than 100 nM.

For the compound `Cc1ncsc1-c1ccc([C@H](C)NC(=O)[C@@H]2C[C@@H](O)CN2C(=O)[C@@H](NC(=O)CCCCCCCCCNC(=O)c2ccc(CCOc3cc(-c4ccccc4O)nnc3N)cc2)C(C)(C)C)cc1` [Compound 171, (2S,4R)-1-((S)-2-(10-(4-(2-((3-amino-6-(2-hydroxyphenyl)pyridazin-4-yl)oxy)ethyl)benzamido)decanamido)-3,3-dimethylbutanoyl)-4-hydroxy-N-((S)-1-(4-(4-methylthiazol-5-yl)phenyl)ethyl)pyrrolidine-2-carboxamide], at HiBit-BRG1, the DC50 is more than 1000 nM and the Dmax is more than 50%. At HiBiT-BRM, the “BRM HiBit Degradation Maximum (%)” value was “A (“A” indicates maximum degradation ≥75%)” and the DC50 is more than 100 nM.

Turning to `Nc1nnc(-c2ccccc2O)cc1OCCc1ccc(CNC(=O)CCCCCOc2cccc3c2C(=O)N(C2CCC(=O)NC2=O)C3=O)cc1` (stereo not drawn) [Compound 63, N-[[4-(2-[[3-amino-6-(2-hydroxyphenyl)pyridazin-4-yl]oxy]ethyl)phenyl]methyl]-6-[[2-(2,6-dioxopiperidin-3-yl)-1,3-dioxoisoindol-4-yl]oxy]hexanamide], at HiBit-BRG1, the DC50 is more than 1000 nM and the Dmax is less than 50%. Further, on HiBiT-BRM, the “BRM HiBit Degradation Maximum (%)” value is recorded as “B (“B” indicates maximum degradation ≥50%)” and the DC50 is more than 100 nM.

As to `Cc1ncsc1-c1ccc(CNC(=O)[C@@H]2C[C@@H](O)CN2C(=O)[C@@H](NC(=O)CCN2CCC(OC3CN(C(=O)c4ccc(CCOc5cc(-c6ccccc6O)nnc5N)cc4)C3)CC2)C(C)(C)C)cc1` [Compound 245, (2S,4R)-1-((S)-2-(3-(4-((1-(4-(2-((3-amino-6-(2-hydroxyphenyl)pyridazin-4-yl)oxy)ethyl)benzoyl)azetidin-3-yl)oxy)piperidin-1-yl)propanamido)-3,3-dimethylbutanoyl)-4-hydroxy-N-(4-(4-methylthiazol-5-yl)benzyl)pyrrolidine-2-carboxamide], on HiBit-BRG1, the DC50 is more than 1000 nM and the Dmax was less than 50%. Besides, on HiBiT-BRM, the “BRM HiBit Degradation Maximum (%)” value is reported as “B (“B” indicates maximum degradation ≥50%)” and the DC50 is more than 1000 nM.

Take `Cc1ncsc1-c1ccc(CNC(=O)[C@@H]2C[C@@H](O)CN2C(=O)[C@@H](NC(=O)COCCOCCNC(=O)CN2CCN(c3cc(-c4ccccc4O)nnc3N)CC2)C(C)(C)C)cc1` [Compound 100, (2S,4R)-1-[(2S)-2-(2-[2-[2-(2-[4-[3-amino-6-(2-hydroxyphenyl)pyridazin-4-yl]piperazin-1-yl]acetamido)ethoxy]ethoxy]acetamido)-3,3-dimethylbutanoyl]-4-hydroxy-N-[[4-(4-methyl-1,3-thiazol-5-yl)phenyl]methyl]pyrrolidine-2-carboxamide]: on HiBit-BRG1, the DC50 is more than 1000 nM and the Dmax was less than 50%. Moreover, at HiBiT-BRM, the “BRM HiBit Degradation Maximum (%)” value was “C (“C” indicates maximum degradation <50%)” and the DC50 is more than 1000 nM.

The values above are taken from US20230150974A1 (Foghorn Therapeutics Inc., priority 2020, published 2023).
